# Laboratory results reported in ChEMBL document CHEMBL1130303, “Evaluation of piperidinoethoxy moiety as an antiestrogenic substituent in non-steroidal anti-estrogens: Fertility regulation” (1997).
# Calls of active or inactive are those of the source. The calls are words filed in the database; no cut-off is given here.
# Legend:
# [1] = molecular target: Estrogen receptor (Rattus norvegicus) (UniProt P06211+Q62986); experiment: Relative Binding Affinity (RBA) for estrogen receptor in ovariectomized rats; assay type: protein assay
# [2] = species: Rattus norvegicus; experiment: Antifertility activity at maximal effective dose in adult female rat in an antiestrogen assay; assay type: functional
# [3] = tested on: Rattus norvegicus; experiment: Antifertility activity at maximal effective dose in adult female rat in an antiestrogen assay at 10 mg/kg; assay type: functional
# [4] = tested on: Rattus norvegicus; experiment: Antifertility activity at maximal effective dose in adult female rat in an antiestrogen assay; Inactive at 5 mg/kg dose; assay type: functional, organism-based; design: dose 5 mg/kg
# [5] = species: Rattus norvegicus; experiment: Antifertility activity at maximal effective dose in adult female rat in an antiestrogen assay; Inactive; assay type: functional, organism-based
# [6] = tested on: Rattus norvegicus; experiment: Antifertility activity at maximal effective dose in adult female rat in an antiestrogen assay; Inactive at 10 mg/kg dose; assay type: functional, organism-based; design: dose 10 mg/kg
Structure (SMILES),relative binding affinity (RBA) [1],MED100 [2],other results
COc1ccc2c(c1)OCC(c1ccccc1)C2c1ccc(OCCN2CCCC2)cc1 (stereo not given),7.35,0.1 mg/kg,–
COc1ccc2c(c1)OC(C)(C)C(c1ccccc1)=C2c1ccc(OCCN2CCCC2)cc1,0.86,5 mg/kg,–
COc1ccc2c(c1)OC(C)(C)[C@H](c1ccccc1)[C@@H]2c1ccc(OCCN2CCCCC2)cc1,–,–,Activity [3]: 90%
CC1(C)Oc2cc(O)ccc2C(c2ccc(OCCN3CCCCC3)cc2)=C1c1ccccc1,2.11,–,MED100 [4]: inactive
CC1(C)Oc2cc(O)ccc2C(c2ccc(OCCN3CCCC3)cc2)=C1c1ccccc1,9.2,15 mg/kg,–
CC1(C)Oc2cc(O)ccc2[C@@H](c2ccc(OCCN3CCCCC3)cc2)[C@@H]1c1ccccc1,50.1,0.2 mg/kg,–
COc1ccc2c(c1)OC(C)(C)C(c1ccccc1)=C2c1ccc(OCCN2CCCCC2)cc1,0.53,10 mg/kg,–
CC1(C)Oc2cc(O)ccc2[C@@H](c2ccc(OCCN3CCCCC3)cc2)[C@H]1c1ccccc1,–,–,MED100 [5]: inactive
COc1ccc2c(c1)OC(C)(C)[C@@H](c1ccccc1)[C@@H]2c1ccc(OCCN2CCCCC2)cc1,3.77,0.1 mg/kg,–
CC1(C)Oc2cc(O)ccc2[C@@H](c2ccc(OCCN3CCCC3)cc2)[C@@H]1c1ccccc1,112,0.25 mg/kg,–
CC1(C)Oc2cc(O)ccc2[C@@H](c2ccc(OCCN3CCCC3)cc2)[C@H]1c1ccccc1,–,–,MED100 [5]: inactive
COc1ccc2c(c1)OCC(c1ccccc1)C2c1ccc(OCCN2CCCCC2)cc1 (stereo not given),1.45,0.25 mg/kg,–
COc1ccc2c(c1)OC(C)(C)[C@H](c1ccccc1)[C@@H]2c1ccc(OCCN2CCCC2)cc1,0.16,–,MED100 [6]: inactive
COc1ccc2c(c1)OC(C)(C)[C@@H](c1ccccc1)[C@@H]2c1ccc(OCCN2CCCC2)cc1 [LEVORMELOXIFENE],5.24,0.25 mg/kg,–
